Laboratory results as given in patent publication US8952024B2, “Herbicidal pyrimidone derivatives” (E I du Pont de Nemours and Company, priority 2009, dated 2015).

Experiments:
Assay in all cases: Test B pre-/postemergence plant response
Format in all cases: in vivo
[1] = test system: wheat (Triticum aestivum)
Summary of the method: (§1)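 Test compounds, formulated in a non-phytotoxic solvent mixture with surfactant, are applied to the soil surface (loam and sand blend) right after seeding, or sprayed over plants at the 1- to 4-leaf stage grown in peat moss/vermiculite medium. After 13 to 15 days under glasshouse conditions, each species is scored visually from 0 (no effect) to 100 (complete control) against controls.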

soybean (Glycine max) = test system: soybean (Glycine max)
Summary of the method: as §1

[2] = test system: velvetleaf (Abutilon theophrasti)
Summary of the method: as §1

[3] = test system: bermudagrass (Cynodon dactylon)
Summary of the method: as §1

[4] = test system: woolly cupgrass (Eriochloa villosa)
Summary of the method: as §1

[5] = test system: lambsquarters (Chenopodium album)
Summary of the method: as §1

[6] = test system: ragweed (common ragweed, Ambrosia elatior)
Summary of the method: as §1

[7] = test system: large crabgrass (Digitaria sanguinalis)
Summary of the method: as §1

[8] = test system: green foxtail (Setaria viridis)
Summary of the method: as §1

[9] = test system: yellow nutsedge (Cyperus esculentus)
Summary of the method: as §1

[10] = test system: goosegrass (Eleusine indica)
Summary of the method: as §1

[11] = test system: johnsongrass (Sorghum halepense)
Summary of the method: as §1

kochia (Kochia scoparia) = conditions: Postemergence
Summary of the method: as §1

[12] = 250 g ai/ha, Preemergence, 0 to 100 scale
[13] = Postemergence, 62 g ai/ha, scale 0 (no effect) to 100 (complete control), 13 to 15 days
[14] = Postemergence, 125 g ai/ha, visual rating after 13 to 15 days, scale 0 (no effect) to 100 (complete control)
[15] = Preemergence, 31 g ai/ha, scale 0 to 100 (0 no effect, 100 complete control)
[16] = Preemergence, 125 g ai/ha, 0 to 100 scale
[17] = Postemergence, 31 g ai/ha, scale 0 to 100 (0 no effect, 100 complete control)
[18] = Postemergence, 250 g ai/ha, scale 0 to 100
[19] = Preemergence, 62 g ai/ha, scale 0 to 100 (0 no effect, 100 complete control)
[20] = Postemergence, 31 g ai/ha, 0 to 100 scale (0 no effect, 100 complete control)
[21] = Postemergence, 62 g ai/ha, scale 0 to 100 (0 no effect, 100 complete control)
[22] = Postemergence, 125 g ai/ha, scale 0 (no effect) to 100 (complete control), 13 to 15 days
[23] = Postemergence, 250 g ai/ha, scale 0 to 100 (0 no effect, 100 complete control), 13 to 15 days

## O=C1CCCC(O)=C1C(=O)c1cnc(-c2ccccc2)n(-c2cccc(Br)c2)c1=O [Compound 38]
[1]; [12]
  Plant response rating, Wheat: 5
[1]; [13]
  Plant response rating, Wheat: 20
[1]; [14]
  Plant response rating, Wheat: 40
[1]; [15]
  Plant response rating, Wheat: 0
[1]; [16]
  Wheat plant response rating: 0
Soybean (Glycine max); [12]
  Plant response rating, Soybean: 75
Soybean (Glycine max); [13]
  Plant response rating, Soybean: 85
Soybean (Glycine max); [14]
  Plant response rating, Soybean: 90
Soybean (Glycine max); [15]
  Plant response rating, Soybean: 0
Soybean (Glycine max); [16]
  Soybean plant response rating: 0
[2]; [12]
  Plant response rating, Velvetleaf: 100
[2]; [13]
  Plant response rating, Velvetleaf: 100
[2]; [14]
  Plant response rating, Velvetleaf: 100
[2]; [15]
  Plant response rating, Velvetleaf: 55
[2]; [16]
  Velvetleaf plant response rating: 98
[3]; [12]
  Plant response rating, Bermudagrass: 100
[3]; [17]
  Plant response rating, Bermudagrass: 98
[3]; [13]
  Plant response rating, Bermudagrass: 100
[3]; [14]
  Plant response rating, Bermudagrass: 100
[3]; [18]
  Bermudagrass plant response rating: 100
[3]; [15]
  Plant response rating, Bermudagrass: 98
[3]; [19]
  Plant response rating, Bermudagrass: 100
[3]; [16]
  Bermudagrass plant response rating: 100
[4]; [12]
  Plant response rating, Cupgrass, Woolly: 80
[4]; [17]
  Plant response rating, Cupgrass, Woolly: 80
[4]; [13]
  Plant response rating, Cupgrass, Woolly: 90
[4]; [14]
  Plant response rating, Cupgrass, Woolly: 95
[4]; [18]
  Cupgrass, Woolly plant response rating: 100
[4]; [15]
  Plant response rating, Cupgrass, Woolly: 0
[4]; [19]
  Plant response rating, Cupgrass, Woolly: 10
[4]; [16]
  Cupgrass, Woolly plant response rating: 60
[5]; [12]
  Plant response rating, Lambsquarters: 100
[5]; [13]
  Plant response rating, Lambsquarters: 95
[5]; [14]
  Plant response rating, Lambsquarters: 100
[5]; [18]
  Lambsquarters plant response rating: 100
[5]; [15]
  Plant response rating, Lambsquarters: 98
[5]; [19]
  Plant response rating, Lambsquarters: 98
[5]; [16]
  Lambsquarters plant response rating: 100
[6]; [12]
  Plant response rating, Ragweed: 95
[6]; [13]
  Plant response rating, Ragweed: 80
[6]; [14]
  Plant response rating, Ragweed: 80
[6]; [15]
  Plant response rating, Ragweed: 40
[6]; [16]
  Ragweed plant response rating: 80
[7]; [12]
  Plant response rating, Crabgrass, Large: 100
[7]; [17]
  Plant response rating, Crabgrass, Large: 90
[7]; [13]
  Plant response rating, Crabgrass, Large: 90
[7]; [14]
  Plant response rating, Crabgrass, Large: 98
[7]; [18]
  Crabgrass, Large plant response rating: 100
[7]; [15]
  Plant response rating, Crabgrass, Large: 60
[7]; [19]
  Plant response rating, Crabgrass, Large: 90
[7]; [16]
  Crabgrass, Large plant response rating: 100
[8]; [12]
  Plant response rating, Foxtail, Green: 100
[8]; [17]
  Plant response rating, Foxtail, Green: 85
[8]; [13]
  Plant response rating, Foxtail, Green: 90
[8]; [14]
  Plant response rating, Foxtail, Green: 95
[8]; [18]
  Foxtail, Green plant response rating: 95
[8]; [15]
  Plant response rating, Foxtail, Green: 20
[8]; [19]
  Plant response rating, Foxtail, Green: 30
[8]; [16]
  Foxtail, Green plant response rating: 85
[9]; [12]
  Plant response rating, Nutsedge, Yellow: 80
[9]; [13]
  Plant response rating, Nutsedge, Yellow: 0
[9]; [14]
  Plant response rating, Nutsedge, Yellow: 15
[9]; [15]
  Plant response rating, Nutsedge, Yellow: 10
[9]; [16]
  Nutsedge, Yellow plant response rating: 70
[10]; [12]
  Plant response rating, Goosegrass: 100
[10]; [13]
  Plant response rating, Goosegrass: 85
[10]; [14]
  Plant response rating, Goosegrass: 90
[10]; [18]
  Goosegrass plant response rating: 95
[10]; [15]
  Plant response rating, Goosegrass: 95
[10]; [16]
  Goosegrass plant response rating: 100
[11]; [12]
  Plant response rating, Johnsongrass: 95
[11]; [13]
  Plant response rating, Johnsongrass: 75
[11]; [14]
  Plant response rating, Johnsongrass: 95
[11]; [18]
  Johnsongrass plant response rating: 100
[11]; [15]
  Plant response rating, Johnsongrass: 10
[11]; [19]
  Plant response rating, Johnsongrass: 80
[11]; [16]
  Johnsongrass plant response rating: 85
Kochia (Kochia scoparia); 62 g ai/ha, scale 0 (no effect) to 100 (complete control), 13 to 15 days
  Plant response rating, Kochia: 80
Kochia (Kochia scoparia); 125 g ai/ha, visual rating after 13 to 15 days, scale 0 (no effect) to 100 (complete control)
  Plant response rating, Kochia: 100
Kochia (Kochia scoparia); 250 g ai/ha, scale 0 to 100
  Kochia plant response rating: 100

## COCCCn1c(-c2cccc(F)c2)ncc(C(=O)C2=C(O)C3CCC(C3)C2=O)c1=O (centres unmarked) [Compound 238]
[1]; [20]
  Plant response rating, Wheat: 40
[1]; [21]
  Plant response rating, Wheat: 45
[1]; [22]
  Plant response rating, Wheat: 80
[1]; [23]
  Plant response rating, Wheat: 80
Soybean (Glycine max); [20]
  Plant response rating, Soybean: 98
Soybean (Glycine max); [21]
  Plant response rating, Soybean: 100
Soybean (Glycine max); [22]
  Plant response rating, Soybean: 100
Soybean (Glycine max); [23]
  Plant response rating, Soybean: 100
[2]; [20]
  Plant response rating, Velvetleaf: 80
[2]; [21]
  Plant response rating, Velvetleaf: 90
[2]; [22]
  Plant response rating, Velvetleaf: 100
[2]; [23]
  Plant response rating, Velvetleaf: 100
[3]; [20]
  Plant response rating, Bermudagrass: 95
[3]; [21]
  Plant response rating, Bermudagrass: 98
[3]; [22]
  Plant response rating, Bermudagrass: 100
[3]; [23]
  Plant response rating, Bermudagrass: 100
[4]; [20]
  Plant response rating, Cupgrass, Woolly: 95
[4]; [21]
  Plant response rating, Cupgrass, Woolly: 100
[4]; [22]
  Plant response rating, Cupgrass, Woolly: 100
[4]; [23]
  Plant response rating, Cupgrass, Woolly: 100
[5]; [20]
  Plant response rating, Lambsquarters: 100
[5]; [21]
  Plant response rating, Lambsquarters: 100
[5]; [22]
  Plant response rating, Lambsquarters: 100
[5]; [23]
  Plant response rating, Lambsquarters: 100
[6]; [20]
  Plant response rating, Ragweed: 100
[6]; [21]
  Plant response rating, Ragweed: 100
[6]; [22]
  Plant response rating, Ragweed: 100
[6]; [23]
  Plant response rating, Ragweed: 100
[7]; [20]
  Plant response rating, Crabgrass, Large: 95
[7]; [21]
  Plant response rating, Crabgrass, Large: 98
[7]; [22]
  Plant response rating, Crabgrass, Large: 98
[7]; [23]
  Plant response rating, Crabgrass, Large: 98
[8]; [20]
  Plant response rating, Foxtail, Green: 85
[8]; [21]
  Plant response rating, Foxtail, Green: 95
[8]; [22]
  Plant response rating, Foxtail, Green: 98
[8]; [23]
  Plant response rating, Foxtail, Green: 98
[9]; [20]
  Plant response rating, Nutsedge, Yellow: 20
[9]; [21]
  Plant response rating, Nutsedge, Yellow: 20
[9]; [22]
  Plant response rating, Nutsedge, Yellow: 20
[9]; [23]
  Plant response rating, Nutsedge, Yellow: 25
[10]; [20]
  Plant response rating, Goosegrass: 95
[10]; [21]
  Plant response rating, Goosegrass: 98
[10]; [22]
  Plant response rating, Goosegrass: 98
[10]; [23]
  Plant response rating, Goosegrass: 98
[11]; [20]
  Plant response rating, Johnsongrass: 60
[11]; [22]
  Plant response rating, Johnsongrass: 98
[11]; [23]
  Plant response rating, Johnsongrass: 100
Kochia (Kochia scoparia); 31 g ai/ha, 0 to 100 scale (0 no effect, 100 complete control)
  Plant response rating, Kochia: 90
Kochia (Kochia scoparia); 62 g ai/ha, scale 0 to 100 (0 no effect, 100 complete control)
  Plant response rating, Kochia: 98
Kochia (Kochia scoparia); 125 g ai/ha, scale 0 (no effect) to 100 (complete control), 13 to 15 days
  Plant response rating, Kochia: 100
Kochia (Kochia scoparia); 250 g ai/ha, scale 0 to 100 (0 no effect, 100 complete control), 13 to 15 days
  Plant response rating, Kochia: 100
